Measured values from patent publication US20210179577A1, “AROMATIC SULFONAMIDE DERIVATIVES FOR THE TREATMENT OF ISCHEMIC STROKE” (Bayer Aktiengesellschaft, priority 2017, published 2021).

Columns and labels:
hP2X4 = molecular target: T1, hP2X4 (Homo sapiens, UniProt Q99571); assay: Human P2X4 HEK Cell Electrophysiology Assay B (QPatch); format: cell-based; settings: ATP 5 microM, -90 mV; read-out: Human P2X4 HEK Cells (QPatch Electrophysiology) avg IC50
T1 construct: expressed in transfected cells; host or cells: HEK-293 mito-Photina, clone 2a/4
T1 sequence (Q99571 1-388): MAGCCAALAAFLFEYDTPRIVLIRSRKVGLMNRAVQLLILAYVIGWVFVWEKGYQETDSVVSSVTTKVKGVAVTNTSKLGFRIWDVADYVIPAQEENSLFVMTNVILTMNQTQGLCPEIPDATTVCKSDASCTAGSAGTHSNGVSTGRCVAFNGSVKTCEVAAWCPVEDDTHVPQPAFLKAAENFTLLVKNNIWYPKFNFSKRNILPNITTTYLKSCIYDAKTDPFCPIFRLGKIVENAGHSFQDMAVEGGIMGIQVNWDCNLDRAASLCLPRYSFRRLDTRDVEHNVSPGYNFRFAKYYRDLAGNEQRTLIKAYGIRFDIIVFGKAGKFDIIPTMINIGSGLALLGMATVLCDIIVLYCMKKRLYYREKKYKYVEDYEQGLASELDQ
Experimental: Cell culture conditions: HEK-293 mito-Photina pcDNA3(neo-)/pPURO N/pcDNA3_P2RX4, clone 2a/4 (HEK-293 mito-Photina/hP2RX4) cells were cultured in EMEM Minimum Essential Medium Eagle with Earl's salts Balanced Salt Solution (BioWhittaker cat. BE12-125F) supplemented with 5 mL of 200 mM Ultraglutaminel (BioWhittaker cat. BE17-605E/U1), 5 mL of 100× Penicillin/Streptomycin (BioWhittaker cat. DE17-602E; final concentration 1%), 4 mL of 50 mg/mL G418 (Sigma cat. G8168-100 mL; final concentration 400 μg/mL), 10 μL of 10 mg/mL Puromicin (InvivoGen cat. ant-pr-1; final concentration 0.2 μg/mL) and 50 mL of Fetal Bovine Serum (Sigma cat. F7524; final concentration 10%).
Experimentalprotocol: HEK-293 cell lines are seeded 72 or 96 hours before experiment, at a concentration of 5 or 2.5 million cells, respectively onto a T225 flask. Just before the experiments cells are washed twice with D-PBS w/o Ca2+/Mg2+(Euroclone cat. ECB4004L) and detached from the flask with trypsin-EDTA (Sigma, cat. T4174 diluted 1/10). Cells are then re-suspended in the suspension solution: 25 mL EX-CELL ACF CHO medium (Sigma, cat. C5467); 0.625 mL HEPES (BioWhittaker, cat. BE17-737E); 0.25 mL of 100× Penicillin/Streptomycin (BioWhittaker, cat. DE17-602E), 0.1 mL of Soybean Trypsin Inhibitor 10 mg/mL (Sigma, cat. T6522) and placed on the QPatch 16X.
Compound preparation and storage: Compound stock solutions (10 mM; 100% DMSO; stored at −20° C.) were used. Fresh solutions from stock (1 or 3 mM, 100% DMSO) were prepared just before the experiments (0.1% final DMSO concentration).
Patch clamp analysis with QPatch16X (FIG. 1): Standard whole-cell voltage clamp experiments are performed at room temperature using the multihole technology.
For the voltage clamp experiments on hP2X4, data are sampled at 2 KHz. After establishment of the seal and the passage in the whole cell configuration, the cells are held at −90 mV and the hP2X4 current is evoked by the agonist in the absence (vehicle period, i.e. 0.1% DMSO) or in the presence of the compound under investigation at increasing concentrations; see the application protocol in FIG. 1.
Output: the maximum inward current induced by the agonist (ATP 5 microM).
The intracellular solution contained (mM) 135 CsF, 10 NaCl, 1 EGTA, 10 HEPES (pH 7.2 with CsOH) whereas the extracellular solution (mM) 145 NaCl, 4 KCl, 0.5 MgCl2, 1 CaCl2, […], 10 Glucose (pH 7.4 with NaOH).
For data collection, the Sophion software was used and the analysis was performed off-line using Excel and GraphPad Prism.
When possible, i.e. when the % of inhibition with the highest concentration tested was more than 50%, the dose-response curves data were fitted with the following equation:
[X is log of concentration; Y is normalized response (100% down to 0%, decreasing as X increases); Log IC50 same log units as X; HillSlope is unitless slope factor or hill slope]

Sprague Dawley (SD) rats = assay: tMCAO-Induced Ischemic Stroke Model in Rats; format: in vivo, rat; settings: per os twice a day for seven days, from day 8 on, p<5% vs vehicle treated tMCAO-group
Experimental: Transient middle cerebral artery occlusion (tMCAO) was performed in approximately 3 months old male Sprague Dawley (SD) rats according to the method described by Schmid-Elsaesser et al. [Stroke. 1998; 29(10):2162-2170]. In particular, the right common carotid artery (CCA) was exposed through a midline neck incision and carefully dissected free from surrounding nerves and fascia—from its bifurcation to the base of the skull. […] The ECA was dissected further distally and coagulated along with the terminal lingual and maxillary artery branches, just before their bifurcation. The internal carotid artery (ICA) was isolated and carefully separated from the adjacent vagus nerve, and the pterygopalatine artery was ligated close to its origin with a 5-0 nylon suture. Thereafter, a 4-0 silk suture was tied loosely around the mobilized ECA stump, and a 4 cm length of Doccol 4-0 monofilament suture (coated with silicone) was inserted through the proximal ECA into the ICA and thence into the circle of Willis, effectively occluded the MCA. The surgical wound was closed and the animals were returned to their cages for recovery from anesthesia. Two hours after occlusion, rats were re-anesthetized and the monofilament was withdrawn to allow reperfusion. The wound was closed again and rats were returned to their cages.
Four groups of rats with 12-15 rats per group were included into the study. […]

Row | SMILES | IC50 (hP2X4) [nM] | modified neurologic severity score (mNSS) (Sprague Dawley (SD) rats)
1 | NS(=O)(=O)c1cc(NC(=O)Cc2ccccc2Cl)ccc1-n1cc(C(F)(F)F)cn1 [Example 19, 2-(2-Chlorophenyl)-N-{3-sulfamoyl-4-[4-(trifluoromethyl)-1H-pyrazol-1-yl]phenyl}acetamide] | 278 | –
2 | NS(=O)(=O)c1cc(NC(=O)Cc2ccccc2Cl)ccc1-n1cc(F)cn1 [Example 26, 2-(2-Chlorophenyl)-N-[4-(4-fluoro-1H-pyrazol-1-yl)-3-sulfamoylphenyl]acetamide] | 222 | –
3 | N#Cc1cnn(-c2ccc(NC(=O)Cc3ccccc3Cl)cc2S(N)(=O)=O)c1 [Example 39, 2-(2-Chlorophenyl)-N-[4-(4-cyano-1H-pyrazol-1-yl)-3-sulfamoylphenyl]acetamide] | – | significant smaller mNSS than the vehicle treated tMCAO-group

Further lines, with some results ahead:

Row | IC50 (hP2X4) [nM] | SMILES | modified neurologic severity score (mNSS) (Sprague Dawley (SD) rats)
4 | 51 | NS(=O)(=O)c1cc(NC(=O)Cc2ccccc2Cl)ccc1-c1cnn(C(F)F)c1 [Example 326, 2-(2-Chlorophenyl)-N-{4-[1-(difluoromethyl)-1H-pyrazol-4-yl]-3-sulfamoylphenyl}acetamide] | –
5 | 157 | NS(=O)(=O)c1cc(NC(=O)Cc2ccccc2Cl)cnc1-n1cc(C(F)(F)F)cn1 [Example 380, 2-(2-Chlorophenyl)-N-{5-sulfamoyl-6-[4-(trifluoromethyl)-1H-pyrazol-1-yl]pyridin-3-yl}acetamide] | –
